Test results published in patent US6407139B1, “Neovascularization inhibitor” (Kissei Pharmaceutical Co., Ltd., priority 1996, dated 2002).

How the values were obtained:
Format in all cases: cell-based
[1] = tested on: human microvascular endothelial cells; experiment: Tube formation of human microvascular endothelial cells on matrigel (length of tube structures); settings: 18 hours incubation, various concentrations, FIG. 4
Method: (§1) According to the method of Example 1 (1), human microvascular endothelial cells were cultured to prepare a cell suspension. Number of viable cells was counted under a phase-contrast microscopy using a hemocytometer and cell concentration was adjusted to 4×10^4 cells/ml.
Tranilast was added to 1% aqueous sodium bicarbonate solution to prepare 1.0% solution and dissolved by warming at 70° C. The solution was sterilized with millipore filter and diluted with MVE medium to a prescribed final concentration.
An aliquot (0.25 ml) of matrigel (10 mg/ml, Becton Dickinson Labware) was added to a 24-well culture plate (Corning) and was then allowed to solidify by incubation at 37° C. for 1 hour. Suspension (0.25 ml) of human microvascular endothelial cells (4×10^4 cells) and MVE medium (0.25 ml) containing various concentrations of Tranilast were added onto the gel. After 18 hours incubation at 37° C., 5 random fields of one well were photographed at ×40 magnification using a phase-contrast microscopy. The lengths of the tube structures were measured and the mean value was calculated.

[2] = tested on: human microvascular endothelial cells; experiment: Inhibition of chemotaxis of human microvascular endothelial cells to VEGF; settings: chemotaxis to 100 ng/ml VEGF, 5 hours, 96-well micro chemotaxis chamber, FIG. 2
Method: According to the method of Example 1 (1), human microvascular endothelial cells were cultured to prepare a cell suspension. Number of viable cells was counted under a phase-contrast microscopy using a hemocytometer and cell concentration was adjusted to 2×10^4 cells/ml.
Tranilast was added to 1% aqueous sodium bicarbonate solution to prepare 0.55% solution and dissolved by warming at 70° C. The solution was sterilized with millipore filter and diluted with DMEM+Ham (1:1) medium to a prescribed final concentration.
Chemotaxis of human dermal microvascular endothelial cells (prepared in (1)) to vascular endothelial growth factor (VEGF) was studied using a 96-well micro chemotaxis chamber (Neuro Probe Inc.). An aliquot (32 μl) of DMEM+Ham (1:1) medium containing 100 ng/ml of VEGF, 0.1% bovine serum and various concentrations of Tranilast was added to the lower cavity of the chemotaxis chamber. An aliquot (50 μl) of medium containing cell suspension and Tranilast was added to the upper cavity of the chamber. Polycarbonate filter (10 μm thickness with 8 μm pore size; Neuro Probe Inc.) coated with type-1 collagen was used for the chemotaxis membrane. […] Number of migrated cells was counted in 5 random fields at ×400 magnification under a phase-contrast microscopy and mean chemotaxis cell number was calculated.
(§2) Mean and standard variation value of each group were calculated. […]

[3] = tested on: human microvascular endothelial cells; experiment: Inhibition of proliferation of human microvascular endothelial cells; settings: normal human dermal microvascular endothelial cells, 2 days incubation with various concentrations, FIG. 1
Method: Normal human dermal microvascular endothelial cells (Cell Systems Corporation) were subcultured in a medium (MVE medium, Cell Systems Corporation) for endothelial cell culture and used for the study. At the logarithmic growth phase, the medium was aspirated and cells were washed with phosphate-buffered saline (PBS(−)) which was added gentlely. Then, the PBS(−) was aspirated, an aliquot of 0.25% trypsin solution containing 0.02% EDTA was added to the culture plate, and the morphology of cells was observed under a phase-contrast microscopy. When cells were going to be round, an equal value of MVE medium was added to the trypsin solution to stop the action of trypsin. Attached cells were harvested from the plate by pipetting the medium using a slender pasture pipette. […] Number of viable cells in an aliquot of the suspension was counted under a phase-contrast microscopy using a hemocytometer. […]
Cell suspension (1 ml) was added to collagen-coated 6-well plate(Toyobo Engineering Co., Ltd.) and cultured at 37° C. under a humidified atmosphere of 5% CO2 in air. […] After harvesting cells from the plate by pipetting using a pasture pipete, number of viable cells was counted using a hemocytometer.
as §2

[4] = tested on: human microvascular endothelial cells; experiment: Tube formation of human microvascular endothelial cells on matrigel (number of formed network); settings: 18 hours incubation, various concentrations, FIG. 3
Method: as §1
Tranilast was added to 1% aqueous sodium bicarbonate solution to prepare 0.5% solution and dissolved by warming at 70° C. The solution was sterilized with millipore filter and diluted with MVE medium to a prescribed final concentration.
An aliquot (0.25 ml) of matrigel (10 mg/ml, Becton Dickinson Labware) was added to a 24-well culture plate (Corning) and was then allowed to solidify by incubation at 37° C. for 1 hour. Suspension (0.25 ml) of human microvascular endothelial cells (4×10^4 cells) and MVE medium (0.25 ml) containing various concentrations of Tranilast were added onto the gel.

SMILES: COc1ccc(/C=C/C(=O)Nc2ccccc2C(=O)O)cc1OC [Tranilast, N-(3,4-Dimethoxycinnamoyl)anthranilic acid]
- length of the tube structure (tube formation) [1]: significantly reduced in a concentration-dependent manner
- chemotaxis of human microvascular endothelial cells (number of migrated cells) [2]: significantly suppressed
- proliferation of human microvascular endothelial cells (number of viable cells) [3]: significantly suppressed
- number of the formed network (tube formation) [4]: significantly reduced in a concentration-dependent manner
